Experimental data: publication PMC6151529, “Design, Synthesis and Biological Evaluation of N,N-Substituted Amine Derivatives as Cholesteryl Ester Transfer Protein Inhibitors” (Molecules : A Journal of Synthetic Chemistry and Natural …, 2017)

Key:
CETP = biological target: T1, CETP (Homo sapiens, UniProt P11597); experiment: CETP inhibitory activity, BODIPY-CE fluorescence assay (CETP RP Activity Assay Kit); type: biochemical; settings: for IC50: read-out: IC50 (CETP inhibition); for CETP inhibition (in words): BODIPY-CE fluorescence assay
T1 construct: purchased Roar, New York, NY, USA RB-RPAK
T1 sequence (P11597 18-493): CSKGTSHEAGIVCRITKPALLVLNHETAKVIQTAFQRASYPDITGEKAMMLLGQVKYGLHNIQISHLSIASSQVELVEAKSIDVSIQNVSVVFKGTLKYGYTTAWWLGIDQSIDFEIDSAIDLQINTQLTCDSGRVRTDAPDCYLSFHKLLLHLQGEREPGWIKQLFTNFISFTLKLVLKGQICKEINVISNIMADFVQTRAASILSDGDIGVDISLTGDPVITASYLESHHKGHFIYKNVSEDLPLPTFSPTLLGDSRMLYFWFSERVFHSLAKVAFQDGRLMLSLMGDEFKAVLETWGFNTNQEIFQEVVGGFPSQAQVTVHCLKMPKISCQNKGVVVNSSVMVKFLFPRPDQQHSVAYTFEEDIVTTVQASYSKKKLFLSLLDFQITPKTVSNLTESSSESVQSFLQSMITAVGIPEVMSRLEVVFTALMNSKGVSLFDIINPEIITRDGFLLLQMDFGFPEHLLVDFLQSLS
Method: All tested compounds were dissolved in 100% DMSO, making sure the compound was dissolved totally. The solution was vibrated hard on an oscillator for more than 30 s and then stored in a nitrogen cabinet. The stock solutions (10 mM) were diluted with DMSO for an 8-point titration (1:5 serial dilutions) in a 96-well dilution plate. […] Compounds were tested at eight concentrations, and the fluorescence intensity were measured using a fluorometer (ExEm = 465/535 nm). The IC50 was determined from a curve fit of the data with each concentration tested three times.

LDL-C levels = settings: clinical, cited from earlier work
HDL-C levels = settings: clinical, cited from earlier work

COc1ccc(C(C)C)cc1C1=C(CN(Cc2cc(C(F)(F)F)cc(C(F)(F)F)c2)c2nnn(CCCCO)n2)CC(C)(C)CC1 [Compound 20]
IC50 (CETP): 5.76 ± 0.03 µM

COc1ccc(C(C)C)cc1C1=C(CN(Cc2cc(C(F)(F)F)cc(C(F)(F)F)c2)c2nn[nH]n2)CC(C)(C)CC1 [Compound 12, N-(3,5-Bis(trifluoromethyl)benzyl)-N-((2-(5-isopropyl-2-methoxyphenyl)-5,5-dimethylcyclohex-1-enyl)-methyl)-2H-tetrazol-5-amine]
IC50 (CETP): 2.84 ± 0.04 µM

CCOC(=O)CCCn1nnc(N(CC2=C(c3cc(C(C)C)ccc3OC)CCC(C)(C)C2)Cc2cc(C(F)(F)F)cc(C(F)(F)F)c2)n1 [Compound 14, N-(3,5-Bis(trifluoromethyl)benzyl)-N-((2-(5-isopropyl-2-methoxyphenyl)-5,5-dimethylcyclohex-1-enyl)-methyl)-2H-tetrazol-5-amine-2-butyric acid ethyl ester]
IC50 (CETP): > 50 µM

COc1ccc(C(C)C)cc1C1=C(CN(Cc2cc(C(F)(F)F)cc(C(F)(F)F)c2)C2CN(C(=O)OC3CCOCC3)C2)CC(C)(C)CC1 [Compound 37, N-(3,5-Bis(trifluoromethyl)benzyl)-N-((5′-isopropyl-2′-methoxy-4,4-dimethyl-3,4,5,6-tetrahydro-[1,1′-biphenyl]-2-yl)methyl)azetidin-3-amine-1-methanoic acid tetrahydro-2H-pyran-4-ol ester]
IC50 (CETP): > 50 µM

COc1ccc(C(C)C)cc1C1=C(CN(Cc2cc(C(F)(F)F)cc(C(F)(F)F)c2)C2CCN(CC(=O)O)CC2)CC(C)(C)CC1 [Compound 33, N-(3,5-Bis(trifluoromethyl)benzyl)-N-((2-(5-isopropyl-2-methoxyphenyl)-5,5-dimethylcyclohex-1-enyl)-methyl)piperidin-4-amine-1-acetic acid]
IC50 (CETP): > 50 µM

COc1ccc(C(C)C)cc1C1=C(CN(Cc2cc(C(F)(F)F)cc(C(F)(F)F)c2)c2nnn(CCO)n2)CC(C)(C)CC1 [Compound 19, N-(3,5-Bis(trifluoromethyl)benzyl)-N-((2-(5-isopropyl-2-methoxyphenyl)-5,5-dimethylcyclohex-1-enyl)-methyl)-2H-tetrazol-5-amine-2-ethyl alcohol]
IC50 (CETP): 0.73 ± 0.09 µM

COc1ccc(C(C)C)cc1C1=C(CN(Cc2cc(C(F)(F)F)cc(C(F)(F)F)c2)c2nnn(C)n2)CC(C)(C)CC1 [Compound 40, N-(3,5-Bis(trifluoromethyl)benzyl)-N-((2-(5-isopropyl-2-methoxyphenyl)-5,5-dimethylcyclohex-1-enyl)-methyl)-2-methyl-2H-tetrazol-5-amine]
IC50 (CETP): 0.81 ± 0.03 µM

COc1ccc(C(C)C)cc1C1=C(CN(Cc2cccc(C(F)(F)F)c2)c2nnn(C)n2)CC(C)(C)CC1 [Compound 41, N-((2-(5-Isopropyl-2-methoxyphenyl)-5,5-dimethylcyclohex-1-enyl)methyl)-2-methyl-N-(3-(trifluoromethyl)-benzyl)-2H-tetrazol-5-amine]
IC50 (CETP): 10.05 ± 0.06 µM

CCC(CC)CC1(C(=O)Nc2ccccc2SC(=O)C(C)C)CCCCC1 [Dalcetrapib]
effect on LDL-C levels (LDL-C levels): minimal effect
elevation of HDL-C levels (HDL-C levels): up to 30%

COc1ccc(C(C)C)cc1C1=C(CN(Cc2ccc(C(F)(F)F)cc2)c2nnn(C)n2)CC(C)(C)CC1 [Compound 43, N-((2-(5-Isopropyl-2-methoxyphenyl)-5,5-dimethylcyclohex-1-enyl)methyl)-2-methyl-N-(4-(trifluoromethyl)-benzyl)-2H-tetrazol-5-amine]
CETP inhibition (in words) (CETP): no CETP inhibition
IC50 (CETP): > 50 µM

COc1ccc(C(C)C)cc1C1=C(CN(Cc2cc(C(F)(F)F)cc(C(F)(F)F)c2)C2CCN(CCO)CC2)CC(C)(C)CC1 [Compound 32, N-(3,5-Bis(trifluoromethyl)benzyl)-N-((2-(5-isopropyl-2-methoxyphenyl)-5,5-dimethylcyclohex-1-enyl)-methyl)piperidin-4-amine-1-ethyl alcohol]
IC50 (CETP): > 50 µM

COc1ccc(C(C)C)cc1C1=C(CN(Cc2ccc(OC(F)(F)F)cc2)c2nnn(C)n2)CC(C)(C)CC1 [Compound 44, N-((2-(5-Isopropyl-2-methoxyphenyl)-5,5-dimethylcyclohex-1-enyl)methyl)-2-methyl-N-(4-(trifluoro-methoxy)benzyl)-2H-tetrazol-5-amine]
CETP inhibition (in words) (CETP): no CETP inhibition
IC50 (CETP): > 50 µM

COc1cc(F)c(C(C)C)cc1-c1ccc(C(F)(F)F)cc1CN1C(=O)O[C@H](c2cc(C(F)(F)F)cc(C(F)(F)F)c2)[C@@H]1C [Anacetrapib]
decrease of LDL-C levels (LDL-C levels; printed as 'to'): 40%
raise of HDL-C levels (HDL-C levels; printed as 'to'): 130%

COc1ccc(C(C)C)cc1C1=C(CN(Cc2cc(C(F)(F)F)cc(C(F)(F)F)c2)c2nnn(CC(N)=O)n2)CC(C)(C)CC1 [Compound 21, 2-(5-((3,5-Bis(trifluoromethyl)benzyl)((2-(5-isopropyl-2-methoxyphenyl)-5,5-dimethylcyclohex-1-enyl)-methyl)amino)-2H-tetrazol-2-yl)acetamide]
IC50 (CETP): 20.06 ± 0.12 µM

COc1ccc(C(C)C)cc1C1=C(CN(Cc2cc(C(F)(F)F)cc(C(F)(F)F)c2)c2nnn(CCCC(=O)O)n2)CC(C)(C)CC1 [Compound 18, N-(3,5-Bis(trifluoromethyl)benzyl)-N-((2-(5-isopropyl-2-methoxyphenyl)-5,5-dimethylcyclohex-1-enyl)-methyl)-2H-tetrazol-5-amine-2-butyric acid]
IC50 (CETP): 1.6 ± 0.02 µM

COc1ccc(C(C)C)cc1C1=C(CN(Cc2cc(C(F)(F)F)cc(C(F)(F)F)c2)c2nnn(CCN)n2)CC(C)(C)CC1 [Compound 15, 2-(2-Aminoethyl)-N-(3,5-Bis(trifluoromethyl)benzyl)-N-((2-(5-isopropyl-2-methoxyphenyl)-5,5-dimethyl-cyclohex-1-enyl)methyl)-2H-tetrazol-5-amine]
IC50 (CETP): 1.92 ± 0.1 µM

CCOC(=O)N1CC(N(CC2=C(c3cc(C(C)C)ccc3OC)CCC(C)(C)C2)Cc2cc(C(F)(F)F)cc(C(F)(F)F)c2)C1 [Compound 35, N-(3,5-Bis(trifluoromethyl)benzyl)-N-((5′-isopropyl-2′-methoxy-4,4-dimethyl-3,4,5,6-tetrahydro-[1,1′-biphenyl]-2-yl)methyl)azetidin-3-amine-1-methanoic acid ethyl ester]
IC50 (CETP): > 50 µM

COc1ccc(C(C)C)cc1C1=C(CN(Cc2cc(C(F)(F)F)cc(C(F)(F)F)c2)c2noc(C)n2)CC(C)(C)CC1 [Compound 22, N-(3,5-Bis(trifluoromethyl)benzyl)-N-((2-(5-isopropyl-2-methoxyphenyl)-5,5-dimethylcyclohex-1-enyl)-methyl)-5-methyl-1,2,4-oxadiazol-3-amine]
IC50 (CETP): 0.72 ± 0.06 µM

COC(=O)Cn1nnc(N(CC2=C(c3cc(C(C)C)ccc3OC)CCC(C)(C)C2)Cc2cc(C(F)(F)F)cc(C(F)(F)F)c2)n1 [Compound 13]
IC50 (CETP): > 50 µM

COc1ccc(C(C)C)cc1C1=C(CN(Cc2ccc(F)cc2)c2nnn(C)n2)CC(C)(C)CC1 [Compound 42, N-(4-Fluorobenzyl)-N-((2-(5-isopropyl-2-methoxyphenyl)-5,5-dimethylcyclohex-1-enyl)methyl)-2-methyl-2H-tetrazol-5-amine]
CETP inhibition (in words) (CETP): no CETP inhibition
IC50 (CETP): > 50 µM

COc1ccc(C(C)C)cc1C1=C(CN(Cc2cc(C(F)(F)F)cc(C(F)(F)F)c2)c2nnn(CCS(C)(=O)=O)n2)CC(C)(C)CC1 [Compound 16, N-(3,5-Bis(trifluoromethyl)benzyl)-N-((2-(5-isopropyl-2-methoxyphenyl)-5,5-dimethylcyclohex-1-enyl)-methyl)-2-(2-(methylsulfonyl)ethyl)-2H-tetrazol-5-amine]
IC50 (CETP): 1.2 ± 0.01 µM

COc1ccc(C(C)C)cc1C1=C(CN(Cc2cc(C(F)(F)F)cc(C(F)(F)F)c2)C2CCN(C(=O)OC3CCOCC3)CC2)CC(C)(C)CC1 [Compound 34, N-(3,5-Bis(trifluoromethyl)benzyl)-N-((2-(5-isopropyl-2-methoxyphenyl)-5,5-dimethylcyclohex-1-enyl)-methyl)piperidin-4-amine-1-methanoic acid tetrahydro-2H-pyran-4-ol ester]
IC50 (CETP): > 50 µM

Cc1cc(C)c2c(c1)[C@@H](N(Cc1cc(C(F)(F)F)cc(C(F)(F)F)c1)c1nnn(C)n1)CCCN2C[C@H]1CC[C@H](C(=O)O)CC1 [Evacetrapib]
decrease of LDL-C (LDL-C levels): up to 36%
raising of HDL-C levels (HDL-C levels): more than 129%

COc1ccc(C(C)C)cc1C1=C(CN(Cc2cc(C(F)(F)F)cc(C(F)(F)F)c2)C2CN(C(=O)OC(C)C)C2)CC(C)(C)CC1 [Compound 36, N-(3,5-Bis(trifluoromethyl)benzyl)-N-((5′-isopropyl-2′-methoxy-4,4-dimethyl-3,4,5,6-tetrahydro-[1,1′-biphenyl]-2-yl)methyl)azetidin-3-amine-1-methanoic acid isopropyl ester]
IC50 (CETP): > 50 µM
